The record followed here is patent US10414811B2, “Protease-resistant lipidated GLP-1 analogs” (MEDIMMUNE LIMITED, priority 2015, dated 2019).

Read-outs that look alike come from different tables or passages of the source. Numbered stars: 1 amine (or outer) side, 2 acyl side, 3 side chain; on linkers, the order of the positions; unused ones are H or OH. Square brackets hold non-standard residues; d marks the D form. Side chains are listed from the residue outwards. Peptide text beside a SMILES is read from it. * marks the point of attachment. γGlu = O=C(O)[C@H](CCC(=O)[*:2])N[*:1]; Palmitoyl = CCCCCCCCCCCCCCCC(=O)*; αMeF = C[C@](N)(Cc1ccccc1)C(=O)O; αMeK = C[C@](N)(CCCCN)C(=O)O; Lauroyl = CCCCCCCCCCCC(=O)*; αMeS = C[C@](N)(CO)C(=O)O; AEEA = NCCOCCOCC(=O)O; Aib = CC(C)(N)C(=O)O Where only a bound is given, the exact number is not on record here.

Holding throughout (assay type): cell-based
For experiment [1], the target named is T1, human glucose-dependent insulinotropic peptide receptor (GIPR) (Homo sapiens, UniProt P48546).
T1 construct: expressed in transfected cells
T1 sequence (P48546 22-466): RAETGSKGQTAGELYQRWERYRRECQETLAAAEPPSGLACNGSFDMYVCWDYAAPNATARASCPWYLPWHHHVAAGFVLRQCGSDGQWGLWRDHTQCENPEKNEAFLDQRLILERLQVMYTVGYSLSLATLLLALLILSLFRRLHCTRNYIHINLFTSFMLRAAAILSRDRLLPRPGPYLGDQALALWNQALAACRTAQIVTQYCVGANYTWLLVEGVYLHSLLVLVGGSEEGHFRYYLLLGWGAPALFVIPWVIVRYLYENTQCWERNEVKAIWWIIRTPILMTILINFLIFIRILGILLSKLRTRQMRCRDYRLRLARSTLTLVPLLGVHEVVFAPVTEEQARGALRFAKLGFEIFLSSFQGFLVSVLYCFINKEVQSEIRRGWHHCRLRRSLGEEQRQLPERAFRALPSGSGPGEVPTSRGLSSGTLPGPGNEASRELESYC
Briefly: cAMP assay, human GIPR cells. In short, it runs like this:
(§1)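 Peptide-stimulated cAMP measured by two-step HTRF after a 30 min room-temperature incubation with receptor-expressing cells (hGLP-1R, hGIPR at 1×10^5 cells/ml; hGCGR at 2×10^5 cells/ml). Duplicate dilutions; EC50 from 4-parameter logistic fit of % Delta F.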
Background: cAMP levels reflect the balance of adenylyl cyclase and phosphodiesterase activity.

In experiment [2] the target is T2, human glucagon receptor (GCGR) (Homo sapiens, UniProt P47871).
T2 construct: expressed in transfected cells
Briefly: cAMP assay, human GCGR cells. In short, it runs like this: as §1

Experiment [3] addresses T3, human GLP-1 receptor (GLP-1R) (Homo sapiens, UniProt P43220).
T3 construct: expressed in transfected cells
Briefly: cAMP assay, human GLP-1R cells. As for the experimental part: Sample dilutions are made in duplicate.
A frozen cryo-vial of cells expressing the receptor of interest is thawed rapidly in a water-bath, transferred to pre-warmed assay buffer and spun at 240×g for 5 minutes. Cells are re-suspended in assay buffer at a batch-dependent optimized concentration (e.g. hGCGR cells at 2×10^5 cells/ml, hGLP-1R and hGIPR cells at 1×10^5 cells/ml).
To this, 5 μL cell suspension is added and the plates incubated at room temperature for 30 minutes.
cAMP levels are measured using a commercially available cAMP dynamic 2 HTRF kit (Cisbio, Cat #62AM4PEJ), following the two step protocol as per manufacturer's recommendations. In brief; anti-cAMP cryptate (donor fluorophore) and cAMP-d2 (acceptor fluorophore) are made up separately by diluting each 1/20 in conjugate & lysis buffer provided in the kit. 5 μL anti-cAMP cryptate is added to wells of the assay plate, and 5 μL cAMP-d2 is added to wells except non-specific binding (NSB) wells, to which conjugate and lysis buffer are added. […] EC50 values of the synthetic peptides determined in cAMP assays are then determined.
Data is transformed to % Delta F as described in the manufacturer's guidelines and analyzed by 4-parameter logistic fit to determine EC50 values. […] To compare the balance of activities at the GLP-1R and GCGR between different peptides and across different conditions, these can be correlated, where the EC50's are related to those of comparator peptides.

Setting [4] is: cAMP assay, first determination (n1), read-out: Primary assay EC50 GIP-R (n1).
[5] abbreviates: cAMP assay, second determination (n2), read-out: Primary assay EC50 GIP-R (n2).
[6] abbreviates: cAMP assay, first determination (n1), read-out: Primary assay EC50 Gluc-R (n1).
Where [7] appears, read: cAMP assay, second determination (n2), read-out: Primary assay EC50 Gluc-R (n2).
The mark [8] stands for this setting: cAMP assay, first determination (n1), read-out: Primary assay EC50 GLP-1R n1.
Where [9] appears, read: cAMP assay, second determination (n2), read-out: Primary assay EC50 GLP-1R n2.
Where [10] appears, read: mean of n1 and n2, read-out: Mean pM GLP-1R.

T3 sequence (P43220 24-463): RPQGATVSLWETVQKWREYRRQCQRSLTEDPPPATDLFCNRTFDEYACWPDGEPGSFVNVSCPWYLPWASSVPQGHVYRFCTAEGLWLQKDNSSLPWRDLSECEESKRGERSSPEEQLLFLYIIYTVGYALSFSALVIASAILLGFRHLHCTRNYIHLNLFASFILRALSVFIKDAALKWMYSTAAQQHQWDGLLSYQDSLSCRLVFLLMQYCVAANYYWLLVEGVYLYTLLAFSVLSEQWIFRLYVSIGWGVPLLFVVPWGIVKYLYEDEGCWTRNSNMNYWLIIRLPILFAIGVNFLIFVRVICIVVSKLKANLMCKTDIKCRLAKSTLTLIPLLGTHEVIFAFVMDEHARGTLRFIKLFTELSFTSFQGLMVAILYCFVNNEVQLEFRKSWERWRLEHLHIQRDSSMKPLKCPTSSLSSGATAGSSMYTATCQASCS
T2 sequence (P47871 26-477): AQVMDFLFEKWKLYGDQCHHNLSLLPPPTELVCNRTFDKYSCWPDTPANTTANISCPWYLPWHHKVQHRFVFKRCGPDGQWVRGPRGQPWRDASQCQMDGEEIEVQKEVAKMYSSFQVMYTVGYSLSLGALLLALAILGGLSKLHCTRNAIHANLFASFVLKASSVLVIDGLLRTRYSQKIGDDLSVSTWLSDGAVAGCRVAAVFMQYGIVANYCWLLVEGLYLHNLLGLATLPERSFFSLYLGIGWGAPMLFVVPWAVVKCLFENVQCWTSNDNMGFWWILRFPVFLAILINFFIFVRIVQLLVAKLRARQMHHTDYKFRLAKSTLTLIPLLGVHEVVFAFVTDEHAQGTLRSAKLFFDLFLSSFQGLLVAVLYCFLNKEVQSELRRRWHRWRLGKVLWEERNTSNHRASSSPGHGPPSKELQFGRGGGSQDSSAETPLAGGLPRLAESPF

For `CCCCCCCCCCCCCCCC(=O)N[C@@H](CCC(=O)NCCCC[C@H](NC(=O)[C@H](CCC(=O)O)NC(=O)C(C)(C)NC(=O)[C@@H](N)Cc1c[nH]cn1)C(=O)N[C@@H](CO)C(=O)N[C@@](C)(Cc1ccccc1)C(=O)N[C@H](C(=O)N[C@@H](CO)C(=O)N[C@@H](CC(=O)O)C(=O)N[C@H](C(=O)N[C@@](C)(CO)C(=O)N[C@@H](CO)C(=O)N[C@@](C)(Cc1ccccc1)C(=O)N[C@@H](CC(C)C)C(=O)N[C@@H](CCC(=O)O)C(=O)NCC(=O)N[C@@H](CCC(=O)O)C(=O)N[C@@H](C)C(=O)N[C@@H](C)C(=O)N[C@@](C)(CCCCN)C(=O)N[C@@H](CCC(=O)O)C(=O)N[C@@](C)(Cc1ccccc1)C(=O)N[C@H](C(=O)N[C@@H](C)C(=O)N[C@@](C)(Cc1ccccc1)C(=O)N[C@H](C(=O)N[C@H](C(=O)N[C@@](C)(CCCCN)C(=O)NCC(=O)NCC(N)=O)C(C)C)C(C)C)[C@@H](C)CC)C(C)C)[C@@H](C)O)C(=O)O` [compound 96] (H-H[Aib]EK([γGlu-Palmitoyl])S[αMeF]TSDV[αMeS]S[αMeF]LEGEAA[αMeK]E[αMeF]IA[αMeF]VV[αMeK]GG-NH2; N-terminus assumed), the EC50 in experiment [1] (setting [4]) was at least 27 nM; in experiment [1] (setting [5]), at least 27 nM; in experiment [2] (setting [6]), at least 27 nM; in experiment [2] (setting [7]) it was at least 27 nM; in experiment [3] (setting [8]), 920 pM; in experiment [3] (setting [9]), 570 pM. The EC50 in experiment [3] (setting [10]) was determined as 746 pM.
For the molecule `CCCCCCCCCCCCCCCC(=O)N[C@@H](CCC(=O)NCCCC[C@H](NC(=O)[C@H](CCC(=O)O)NC(=O)[C@](C)(CCCCN)NC(=O)[C@H](C)NC(=O)[C@H](C)NC(=O)[C@H](CCC(=O)O)NC(=O)CNC(=O)[C@H](CCC(=O)O)NC(=O)[C@H](CC(C)C)NC(=O)[C@](C)(Cc1ccccc1)NC(=O)[C@H](CO)NC(=O)[C@](C)(CO)NC(=O)[C@@H](NC(=O)[C@H](CC(=O)O)NC(=O)[C@H](CO)NC(=O)[C@@H](NC(=O)[C@](C)(Cc1ccccc1)NC(=O)[C@H](CO)NC(=O)CNC(=O)[C@H](CCC(=O)O)NC(=O)C(C)(C)NC(=O)[C@@H](N)Cc1c[nH]cn1)[C@@H](C)O)C(C)C)C(=O)N[C@H](C(=O)N[C@@H](C)C(=O)N[C@@](C)(Cc1ccccc1)C(=O)N[C@H](C(=O)N[C@H](C(=O)N[C@@](C)(CCCCN)C(=O)NCC(=O)NCC(N)=O)C(C)C)C(C)C)[C@@H](C)CC)C(=O)O` [compound 78], the EC50 is at least 28 nM in experiment [1] (setting [4]); at least 28 nM in experiment [1] (setting [5]); at least 28 nM in experiment [2] (setting [6]); at least 28 nM in experiment [2] (setting [7]); 18 pM in experiment [3] (setting [8]); 9.3 pM in experiment [3] (setting [9]). Besides, the EC50 in experiment [3] (setting [10]) amounted to 14 pM.
With `CC[C@H](C)[C@H](NC(=O)[C@](C)(Cc1ccccc1)NC(=O)[C@H](CCC(=O)O)NC(=O)[C@H](CCCCNC(=O)CCCCCNC(=O)CCCCCNC(=O)CCCCCNC(=O)CCCCCCCCCCCOc1ccc(C(=O)O)cc1)NC(=O)[C@H](C)NC(=O)[C@H](C)NC(=O)[C@H](CCC(=O)O)NC(=O)CNC(=O)[C@H](CCC(=O)O)NC(=O)[C@H](CC(C)C)NC(=O)[C@](C)(Cc1ccccc1)NC(=O)[C@H](CO)NC(=O)[C@](C)(CO)NC(=O)[C@@H](NC(=O)[C@H](CC(=O)O)NC(=O)[C@H](CO)NC(=O)[C@@H](NC(=O)[C@](C)(Cc1ccccc1)NC(=O)[C@H](CO)NC(=O)CNC(=O)[C@H](CCC(=O)O)NC(=O)C(C)(C)NC(=O)[C@@H](N)Cc1c[nH]cn1)[C@@H](C)O)C(C)C)C(=O)N[C@@H](C)C(=O)N[C@@](C)(Cc1ccccc1)C(=O)N[C@H](C(=O)N[C@H](C(=O)N[C@@](C)(CCCCN)C(=O)NCC(=O)NCC(N)=O)C(C)C)C(C)C` [compound 142], the EC50 in experiment [1] (Primary assay EC50 GIP-R (n1), cAMP assay, first determination (n1)) is at least 26 nM; in experiment [1] (read-out: Primary assay EC50 GIP-R (n2), cAMP assay, second determination (n2)), at least 26 nM; in experiment [2] (Primary assay EC50 Gluc-R (n1), cAMP assay, first determination (n1)), at least 26 nM; in experiment [2] (read-out: Primary assay EC50 Gluc-R (n2), cAMP assay, second determination (n2)), at least 26 nM; in experiment [3] (setting [8]), 12 pM; in experiment [3] (setting [9]), 7.9 pM. Also, the EC50 in experiment [3] (setting [10]) was 10.1 pM.
Regarding `CCCCCCCCCCCC(=O)N[C@@H](CCC(=O)NCCOCCOCC(=O)NCCOCCOCC(=O)NCCCC[C@H](NC(=O)[C@H](CCC(=O)O)NC(=O)CNC(=O)[C@H](CCC(=O)O)NC(=O)[C@H](CCCCNC(=O)COCCOCCNC(=O)COCCOCCNC(=O)CC[C@H](NC(=O)CCCCCCCCCCC)C(=O)O)NC(=O)[C@H](Cc1ccc(O)cc1)NC(=O)[C@H](CO)NC(=O)[C@](C)(CO)NC(=O)[C@@H](NC(=O)[C@H](CC(=O)O)NC(=O)[C@H](CO)NC(=O)[C@@H](NC(=O)[C@](C)(Cc1ccccc1)NC(=O)[C@H](CO)NC(=O)CNC(=O)[C@H](CCC(=O)O)NC(=O)C(C)(C)NC(=O)[C@@H](N)Cc1c[nH]cn1)[C@@H](C)O)C(C)C)C(=O)N[C@@H](C)C(=O)N[C@@](C)(CCCCN)C(=O)N[C@@H](CCC(=O)O)C(=O)N[C@@H](Cc1ccccc1)C(=O)N[C@H](C(=O)N[C@@H](C)C(=O)N[C@@H](Cc1ccccc1)C(=O)N[C@@H](CCCCNC(=O)COCCOCCNC(=O)COCCOCCNC(=O)CC[C@H](NC(=O)CCCCCCCCCCC)C(=O)O)C(=O)N[C@H](C(=O)N[C@@H](CCC(=O)O)C(=O)NCC(=O)NCC(N)=O)C(C)C)[C@@H](C)CC)C(=O)O` [compound 485] (H-H[Aib]EGS[αMeF]TSDV[αMeS]SYK([AEEA-AEEA-γGlu-Lauroyl])EGEK([AEEA-AEEA-γGlu-Lauroyl])A[αMeK]EFIAFK([AEEA-AEEA-γGlu-Lauroyl])VEGG-NH2), the EC50 in experiment [1] (tris-lipidated peptides, first replicate, read-out: Primary assay EC50 GIP-R (n1)) was 19.6 nM; in experiment [2] (tris-lipidated peptides, first replicate, read-out: Primary assay EC50 Gluc-R (n1)), 19.6 nM; in experiment [3] (tris-lipidated peptides, mean of n1 and n2, read-out: Primary assay EC50 Mean pM GLP-1R) it was 195 pM; in experiment [3] (tris-lipidated peptides, replicate n1, read-out: Primary assay EC50 GLP-1R n1), 167 pM; in experiment [3] (tris-lipidated peptides, replicate n2, read-out: Primary assay EC50 GLP-1R n2), 224 pM.
Consider `CC[C@H](C)[C@H](NC(=O)[C@](C)(Cc1ccccc1)NC(=O)[C@H](CCC(=O)O)NC(=O)[C@](C)(CCCCN)NC(=O)[C@H](C)NC(=O)[C@H](C)NC(=O)[C@H](CCC(=O)O)NC(=O)CNC(=O)[C@H](CCC(=O)O)NC(=O)[C@H](CC(C)C)NC(=O)[C@](C)(Cc1ccccc1)NC(=O)[C@H](CO)NC(=O)[C@](C)(CO)NC(=O)[C@@H](NC(=O)[C@H](CC(=O)O)NC(=O)[C@H](CO)NC(=O)[C@@H](NC(=O)[C@](C)(Cc1ccccc1)NC(=O)[C@H](CO)NC(=O)CNC(=O)[C@H](CCC(=O)O)NC(=O)[C@H](CCCCNC(=O)COCCOCCNC(=O)COCCOCCNC(=O)CC[C@H](NC(=O)CCCCCCCCCCCCCCCCC(=O)O)C(=O)O)NC(=O)[C@@H](N)Cc1c[nH]cn1)[C@@H](C)O)C(C)C)C(=O)N[C@@H](C)C(=O)N[C@@](C)(Cc1ccccc1)C(=O)N[C@H](C(=O)N[C@H](C(=O)N[C@@](C)(CCCCN)C(=O)NCC(=O)NCC(N)=O)C(C)C)C(C)C` [compound 127], for which the EC50 in experiment [1] (setting [4]) is at least 25 nM; in experiment [1] (setting [5]), at least 25.1 nM; in experiment [2] (setting [6]) it was at least 25 nM; in experiment [2] (setting [7]), at least 25.1 nM; in experiment [3] (setting [8]), at least 25000 pM; in experiment [3] (setting [9]), at least 25100 pM. Also, the EC50 in experiment [3] (setting [10]) was at least 25100 pM.
